Test results from publication PMC5597618, “Identification and characterization of the novel reversible and selective cathepsin X inhibitors” (Scientific Reports, 2017).

Experiments:
PC-3 cells = assay: Cytotoxicity assay (MTS) in PC-3 cells; format: cell-based, human; conditions: up to 10 μM, 24 and 48 hours
Method: Human prostate cancer cell line PC-3 cells (obtained from ATCC, Manassas, USA; ATCC Number: CRL-1435) were cultured in F-12 (Gibco) and Advanced DMEM (Gibco) (1:1) with 10% FBS, 1% penicillin/streptomycin and 1% L-glutamine. Rat pheochromocytoma PC-12 cells (obtained from ATCC, Manassas, USA; ATCC Number: CRL-1721) were cultured in Advanced DMEM (Gibco) with 5% FBS, 10% heat-inactivated horse serum, 1% penicillin/streptomycin and 1% L-glutamine.
6.5 × 10^4 PC-3 cells/ml were seeded in a 96-well plate. PC-12 cells were seeded on poly-L-lysine (Sigma) coated plates in serum-free medium at a concentration of 4 × 10^4/well. Cells were treated with various concentrations of compounds (1, 2.5, 5 and 10 μM) for 24 or 48 hours. Cytotoxicity was determined with MTS reagent (CellTiter 96 Aqueous One Solution Cell Proliferation Assay, Promega) and A492 measured after 1 hour.

cathepsin X = cathepsin X (Homo sapiens, UniProt Q9UBR2); assay: Determination of Ki values and inhibition mechanism against cathepsin X (Abz-FEK(Dnp)-OH substrate); format: biochemical; parameters: made in house; host or cells: Pichia pastoris; conditions: second group
Method: (§1) Recombinant or native human cathepsins were used: recombinant cathepsin X and cathepsin S were expressed in Pichia pastoris, recombinant cathepsins B and L in E. coli, [43], native cathepsin H was isolated from human liver. Assay buffers for determining activities of cathepsins X and L consisted of 100 mM sodium acetate buffer, pH 5.5, for cathepsins H, S and B (endopeptidase activity) of 100 mM phosphate buffer pH 6.8, 6.5 and 6.0, respectively and for cathepsin B (exopeptidase activity) of 60 mM acetate buffer pH 5.0. Each assay buffer contained 0.01% Triton X-100 to prevent false positive inhibition due to aggregation of compounds[45], 5 mM cysteine, 1.5 mM EDTA and 0.1% PEG 8000. Enzymes were activated at 37 °C for 5 min before the assays.
(§2) Ki was determined by measuring the initial rate of hydrolysis at three different substrate concentrations (Supplementary Table S2) in the presence of seven different compound concentrations (0, 20, 40, 60, 80, 100 and 200 μM). 90 μL of the activated cathepsin was added to a black 96-well plate with 5 μL of the substrate and 5 μL of the compound. Formation of the fluorescent degradation product was monitored continuously at 460 nm ± 10 nm with excitation at 380 nm ± 20 nm (for AMC substrates) and, as noted above for Abz substrates, at 37 °C. All measurements were performed twice and in duplicate. The resulting data were analyzed by non-linear regression using the software SigmaPlot®, Enzyme Kinetics Module™ 1.3 and were fitted to the equation v = v max [S]/([S] (1 + [I]/αK i ) + K m (1 + [I]/K i )) (first group of compounds). For Ki determination against cathepsin X for the compounds from the second group, progress curves in the absence and presence of each putative inhibitor were fitted to the reaction mechanism presented in Fig. 3b. In this case the resulting data as well as reactivation curves were fitted to the equation system presented in Fig. 3c using ENZO application. For calculation of kinetic parameters from reaction progress curves the fluorescence coefficient for conversion of arbitrary fluorescence units to concentration was first determined. The fluorescence coefficient was calculated as the slope from the plot of initial substrate concentration vs. height of the plateau of the progress curve after complete hydrolysis of increasing concentrations of substrate, using linear regression.
(§3) Supplementary Table S2. Substrates used for the various cathepsins and their concentrations […]
(§4) Enzyme Substrate Concentration (µM) Reference/Company cathepsin X Abz-FEK(Dnp)-OH 3.25, 6.5, 13 Puzer et al.3 cathepsin B - endopept. Z-RR-AMC 60, 180, 360 Bachem cathepsin B - exopept. Abz-GIVRAK(Dnp)-OH 1, 3, 6 Bachem cathepsin S Z-VVR-AMC 0.5, 1, 1.5 Biomol cathepsin L Z-FR-AMC 0.5, 1, 4 Bachem cathepsin H Z-R-AMC 20, 80, 160 Biomol […]

[1] = target: T1, Cathepsin B (exopeptidase a.) (Homo sapiens, UniProt P07858); assay: Ki against cathepsin B exopeptidase activity (Abz-GIVRAK(Dnp)-OH); format: biochemical; conditions: SigmaPlot at 3 different substrate concentrations; pH 5.0
T1 construct: made in house; host or cells: E. coli
Method: as §1, §2, §3, §4

cathepsin X, sequence (Q9UBR2 62-303): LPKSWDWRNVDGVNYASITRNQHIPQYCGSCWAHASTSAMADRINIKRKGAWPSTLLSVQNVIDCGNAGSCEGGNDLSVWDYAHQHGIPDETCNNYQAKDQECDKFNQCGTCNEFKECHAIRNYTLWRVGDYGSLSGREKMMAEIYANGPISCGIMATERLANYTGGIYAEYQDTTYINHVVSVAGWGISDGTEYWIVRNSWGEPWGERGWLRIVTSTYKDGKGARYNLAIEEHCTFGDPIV

In the case of `CC(C)n1cnnc1SCC(=O)c1ccc2c(c1)OCCO2` [Compound 22, 1-(2,3-Dihydrobenzo[b][1,4]dioxin-6-yl)-2-((4-isopropyl-4H-1,2,4-triazol-3-yl)thio)ethan-1-one], the “cytotoxicity to PC-3 cells” value (PC-3 cells) is reported as “not cytotoxic”, the Inhibition mechanism (cathepsin X; ENZO) is reported as “competitive” and the Ki (cathepsin X; progress curve analysis with ENZO) is reported as 2.45 ± 0.05 µM. For the same compound, the Ki [1] was 306 ± 38.1 µM.
